# Laboratory results: ChEMBL document CHEMBL5724914, “Linking interpersonal differences in gut microbiota composition and drug biotransformation activity” (2024)
# Assay: (§1) The drug is tested on Z-028 corresponding to mouse gut metagenome with ENA study accession number: PRJEB37062 and ENA sample accession number: ERS12561827 for biotransformation under anaerobic condition. The drug concentrations were measured over 9 timepoints collected between 0 and 24 hours of incubation by liquid-chromatography-coupled mass spectrometry (LC–MS)
# Conditions: 2 µM
# Also: call rule not given here.
row,Bacterial Biotransformation,Compound
1,Compound metabolized,CC(=O)OCC(=O)[C@@]12N=C(C)O[C@@H]1C[C@H]1[C@@H]3CCC4=CC(=O)C=C[C@]4(C)[C@H]3[C@@H](O)C[C@@]12C [DEFLAZACORT]
2,Compound NOT metabolized,O=c1n(CCCN2CCN(c3cccc(Cl)c3)CC2)nc2ccccn12 [TRAZODONE]

# Assay: as §1, with “Z-027” for “Z-028”, “to” for “to mouse gut”, “ERS12561826” for “ERS12561827”
# Conditions: 2 µM
row,Bacterial Biotransformation,Compound
1,Compound metabolized,CC(=O)OCC(=O)[C@@]12N=C(C)O[C@@H]1C[C@H]1[C@@H]3CCC4=CC(=O)C=C[C@]4(C)[C@H]3[C@@H](O)C[C@@]12C [DEFLAZACORT]
2,Compound NOT metabolized,O=c1n(CCCN2CCN(c3cccc(Cl)c3)CC2)nc2ccccn12 [TRAZODONE]

# Assay: as §1, with “Z-024” for “Z-028”, “pig” for “mouse”, “ERS12561823” for “ERS12561827”
# Conditions: 2 µM
row,Bacterial Biotransformation,Compound
1,Compound metabolized,CC(=O)OCC(=O)[C@@]12N=C(C)O[C@@H]1C[C@H]1[C@@H]3CCC4=CC(=O)C=C[C@]4(C)[C@H]3[C@@H](O)C[C@@]12C [DEFLAZACORT]
2,Compound metabolized,O=c1n(CCCN2CCN(c3cccc(Cl)c3)CC2)nc2ccccn12 [TRAZODONE]

# Assay: as §1, with “Z-020” for “Z-028”, “rabbit” for “mouse”, “ERS12561819” for “ERS12561827”
# Conditions: 2 µM
row,Bacterial Biotransformation,Compound
1,Compound metabolized,CC(=O)OCC(=O)[C@@]12N=C(C)O[C@@H]1C[C@H]1[C@@H]3CCC4=CC(=O)C=C[C@]4(C)[C@H]3[C@@H](O)C[C@@]12C [DEFLAZACORT]
2,Compound NOT metabolized,O=c1n(CCCN2CCN(c3cccc(Cl)c3)CC2)nc2ccccn12 [TRAZODONE]

# Assay: as §1, with “Z-013” for “Z-028”, “rabbit” for “mouse”, “ERS12561813” for “ERS12561827”
# Conditions: 2 µM
row,Bacterial Biotransformation,Compound
1,Compound metabolized,CC(=O)OCC(=O)[C@@]12N=C(C)O[C@@H]1C[C@H]1[C@@H]3CCC4=CC(=O)C=C[C@]4(C)[C@H]3[C@@H](O)C[C@@]12C [DEFLAZACORT]
2,Compound NOT metabolized,O=c1n(CCCN2CCN(c3cccc(Cl)c3)CC2)nc2ccccn12 [TRAZODONE]

# Assay: as §1, with “Z-009” for “Z-028”, “pig” for “mouse”, “ERS12561809” for “ERS12561827”
# Conditions: 2 µM
row,Bacterial Biotransformation,Compound
1,Compound metabolized,CC(=O)OCC(=O)[C@@]12N=C(C)O[C@@H]1C[C@H]1[C@@H]3CCC4=CC(=O)C=C[C@]4(C)[C@H]3[C@@H](O)C[C@@]12C [DEFLAZACORT]
2,Compound NOT metabolized,O=c1n(CCCN2CCN(c3cccc(Cl)c3)CC2)nc2ccccn12 [TRAZODONE]

# Assay: as §1, with “Z-007” for “Z-028”, “rat” for “mouse”, “ERS12561807” for “ERS12561827”
# Conditions: 2 µM
row,Bacterial Biotransformation,Compound
1,Compound metabolized,CC(=O)OCC(=O)[C@@]12N=C(C)O[C@@H]1C[C@H]1[C@@H]3CCC4=CC(=O)C=C[C@]4(C)[C@H]3[C@@H](O)C[C@@]12C [DEFLAZACORT]
2,Compound NOT metabolized,O=c1n(CCCN2CCN(c3cccc(Cl)c3)CC2)nc2ccccn12 [TRAZODONE]

# Assay: as §1, with “Z-001” for “Z-028”, “ERS12561801” for “ERS12561827”
# Conditions: 2 µM
row,Bacterial Biotransformation,Compound
1,Compound metabolized,CC(=O)OCC(=O)[C@@]12N=C(C)O[C@@H]1C[C@H]1[C@@H]3CCC4=CC(=O)C=C[C@]4(C)[C@H]3[C@@H](O)C[C@@]12C [DEFLAZACORT]
2,Compound NOT metabolized,O=c1n(CCCN2CCN(c3cccc(Cl)c3)CC2)nc2ccccn12 [TRAZODONE]

# Assay: as §1, with “WLS-082” for “Z-028”, “human” for “mouse”, “ERS12561751” for “ERS12561827”
# Conditions: 2 µM
row,Bacterial Biotransformation,Compound
1,Compound metabolized,CC(=O)OCC(=O)[C@@]12N=C(C)O[C@@H]1C[C@H]1[C@@H]3CCC4=CC(=O)C=C[C@]4(C)[C@H]3[C@@H](O)C[C@@]12C [DEFLAZACORT]
2,Compound metabolized,O=c1n(CCCN2CCN(c3cccc(Cl)c3)CC2)nc2ccccn12 [TRAZODONE]

# Assay: as §1, with “WLS-006” for “Z-028”, “human” for “mouse”, “ERS12561741” for “ERS12561827”
# Conditions: 2 µM
row,Bacterial Biotransformation,Compound
1,Compound metabolized,CC(=O)OCC(=O)[C@@]12N=C(C)O[C@@H]1C[C@H]1[C@@H]3CCC4=CC(=O)C=C[C@]4(C)[C@H]3[C@@H](O)C[C@@]12C [DEFLAZACORT]
2,Compound metabolized,O=c1n(CCCN2CCN(c3cccc(Cl)c3)CC2)nc2ccccn12 [TRAZODONE]

# Conditions: human gut metagenome, 24 h, 2 µM
row,Bacterial Biotransformation,Compound
1,Compound metabolized,CC(=O)OCC(=O)[C@@]12N=C(C)O[C@@H]1C[C@H]1[C@@H]3CCC4=CC(=O)C=C[C@]4(C)[C@H]3[C@@H](O)C[C@@]12C [DEFLAZACORT]
2,Compound NOT metabolized,O=c1n(CCCN2CCN(c3cccc(Cl)c3)CC2)nc2ccccn12 [TRAZODONE]

# Conditions: human gut metagenome, 24 h, 2 µM
# Remark: another data set of the same source
row,Bacterial Biotransformation,Compound
1,Compound metabolized,CC(=O)OCC(=O)[C@@]12N=C(C)O[C@@H]1C[C@H]1[C@@H]3CCC4=CC(=O)C=C[C@]4(C)[C@H]3[C@@H](O)C[C@@]12C [DEFLAZACORT]
2,Compound metabolized,O=c1n(CCCN2CCN(c3cccc(Cl)c3)CC2)nc2ccccn12 [TRAZODONE]

# Conditions: human gut metagenome, 24 h, 2 µM
# Remark: another data set of the same source
row,Bacterial Biotransformation,Compound
1,Compound metabolized,CC(=O)OCC(=O)[C@@]12N=C(C)O[C@@H]1C[C@H]1[C@@H]3CCC4=CC(=O)C=C[C@]4(C)[C@H]3[C@@H](O)C[C@@]12C [DEFLAZACORT]
2,Compound NOT metabolized,O=c1n(CCCN2CCN(c3cccc(Cl)c3)CC2)nc2ccccn12 [TRAZODONE]

# Conditions: human gut metagenome, 24 h, 2 µM
# Remark: another data set of the same source
row,Bacterial Biotransformation,Compound
1,Compound metabolized,CC(=O)OCC(=O)[C@@]12N=C(C)O[C@@H]1C[C@H]1[C@@H]3CCC4=CC(=O)C=C[C@]4(C)[C@H]3[C@@H](O)C[C@@]12C [DEFLAZACORT]
2,Compound metabolized,O=c1n(CCCN2CCN(c3cccc(Cl)c3)CC2)nc2ccccn12 [TRAZODONE]

# Conditions: human gut metagenome, 24 h, 2 µM
# Remark: another data set of the same source
row,Bacterial Biotransformation,Compound
1,Compound metabolized,CC(=O)OCC(=O)[C@@]12N=C(C)O[C@@H]1C[C@H]1[C@@H]3CCC4=CC(=O)C=C[C@]4(C)[C@H]3[C@@H](O)C[C@@]12C [DEFLAZACORT]
2,Compound metabolized,O=c1n(CCCN2CCN(c3cccc(Cl)c3)CC2)nc2ccccn12 [TRAZODONE]

# Conditions: human gut metagenome, 24 h, 2 µM
# Remark: another data set of the same source
row,Bacterial Biotransformation,Compound
1,Compound metabolized,CC(=O)OCC(=O)[C@@]12N=C(C)O[C@@H]1C[C@H]1[C@@H]3CCC4=CC(=O)C=C[C@]4(C)[C@H]3[C@@H](O)C[C@@]12C [DEFLAZACORT]
2,Compound NOT metabolized,O=c1n(CCCN2CCN(c3cccc(Cl)c3)CC2)nc2ccccn12 [TRAZODONE]

# Conditions: human gut metagenome, 24 h, 2 µM
# Remark: another data set of the same source
row,Bacterial Biotransformation,Compound
1,Compound metabolized,CC(=O)OCC(=O)[C@@]12N=C(C)O[C@@H]1C[C@H]1[C@@H]3CCC4=CC(=O)C=C[C@]4(C)[C@H]3[C@@H](O)C[C@@]12C [DEFLAZACORT]
2,Compound metabolized,O=c1n(CCCN2CCN(c3cccc(Cl)c3)CC2)nc2ccccn12 [TRAZODONE]

# Conditions: human gut metagenome, 24 h, 2 µM
# Remark: another data set of the same source
row,Bacterial Biotransformation,Compound
1,Compound NOT metabolized,CC(=O)OCC(=O)[C@@]12N=C(C)O[C@@H]1C[C@H]1[C@@H]3CCC4=CC(=O)C=C[C@]4(C)[C@H]3[C@@H](O)C[C@@]12C [DEFLAZACORT]
2,Compound NOT metabolized,O=c1n(CCCN2CCN(c3cccc(Cl)c3)CC2)nc2ccccn12 [TRAZODONE]

# Conditions: human gut metagenome, 24 h, 2 µM
# Remark: another data set of the same source
row,Bacterial Biotransformation,Compound
1,Compound metabolized,CC(=O)OCC(=O)[C@@]12N=C(C)O[C@@H]1C[C@H]1[C@@H]3CCC4=CC(=O)C=C[C@]4(C)[C@H]3[C@@H](O)C[C@@]12C [DEFLAZACORT]
2,Compound metabolized,O=c1n(CCCN2CCN(c3cccc(Cl)c3)CC2)nc2ccccn12 [TRAZODONE]

# Conditions: human gut metagenome, 24 h, 2 µM
# Remark: another data set of the same source
row,Bacterial Biotransformation,Compound
1,Compound metabolized,CC(=O)OCC(=O)[C@@]12N=C(C)O[C@@H]1C[C@H]1[C@@H]3CCC4=CC(=O)C=C[C@]4(C)[C@H]3[C@@H](O)C[C@@]12C [DEFLAZACORT]
2,Compound metabolized,O=c1n(CCCN2CCN(c3cccc(Cl)c3)CC2)nc2ccccn12 [TRAZODONE]
